# Patent US11053204B2, “Pyrimidinyloxy benzene derivatives as herbicides” (FMC Corporation, priority 2015, dated 2021)
# Tests used:
# Assay type in all cases: in vivo
# [1] = tested on: Italian ryegrass (Lolium multiflorum); test: Test A preemergence, visual injury rating; details: 0 to 100 scale (0 no effect, 100 complete control)
# Method in brief: (§1)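 Compounds in non-phytotoxic solvent with surfactant applied as soil spray preemergence, or postemergence to plants 2-10 cm at one- to two-leaf stage, in loam/sand. After approximately 10 days in greenhouse, injury rated visually versus untreated controls, 0 (no effect) to 100 (complete control).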
# [2] = tested on: giant foxtail (Setaria faberii); test: Test A preemergence, visual injury rating; details: 0 to 100 scale (0 no effect, 100 complete control)
# Method in brief: as §1
# [3] = tested on: pigweed (Amaranthus retroflexus); test: Test A preemergence, visual injury rating; details: 0 to 100 scale (0 no effect, 100 complete control)
# Method in brief: as §1
# [4] = tested on: ragweed (common ragweed, Ambrosia elatior); test: Test A preemergence, visual injury rating; details: 0 to 100 scale (0 no effect, 100 complete control)
# Method in brief: as §1
# [5] = tested on: lambsquarters (Chenopodium album); test: Test C preemergence, plant response rating; details: Preemergence
# Method in brief: (§2)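 Greenhouse plants rated visually against untreated controls 13–15 d after treatment, scale 0 = no effect to 100 = complete control. Postemergence sprays went onto potted plants 2–18 cm tall (1–4 leaves); preemergence sprays onto soil freshly sown in loam–sand or silt loam, chemicals formulated in non-phytotoxic solvent with surfactant.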
# [6] = tested on: waterhemp (common waterhemp, Amaranthus rudis); test: Test C preemergence, plant response rating; details: Preemergence
# Method in brief: as §2
# [7] = tested on: crabgrass, large (large crabgrass, Digitaria sanguinalis); test: Test C preemergence, plant response rating; details: Preemergence
# Method in brief: as §2
# [8] = tested on: ryegrass, Italian (Italian ryegrass, Lolium multiflorum); test: Test C preemergence, plant response rating; details: Preemergence
# Method in brief: as §2
# [9] = tested on: velvetleaf (Abutilon theophrasti); test: Test C preemergence, plant response rating; details: Preemergence
# Method in brief: as §2
# [10] = tested on: blackgrass (Alopecurus myosuroides); test: Test C preemergence, plant response rating; details: Preemergence
# Method in brief: as §2
# soybean (Glycine max) = test: Test C preemergence, plant response rating; details: Preemergence
# Method in brief: as §2
# corn (Zea mays) = test: Test C preemergence, plant response rating; details: Preemergence
# Method in brief: as §2
# [11] = tested on: oilseed rape (Brassica napus); test: Test C preemergence, plant response rating; details: Preemergence
# Method in brief: as §2
# [12] = tested on: foxtail, giant (giant foxtail, Setaria faberii); test: Test C preemergence, plant response rating; details: Preemergence
# Method in brief: as §2
# [13] = tested on: wheat (winter wheat, Triticum aestivum); test: Test C preemergence, plant response rating; details: Preemergence
# Method in brief: as §2
# [14] = tested on: ragweed (common ragweed, Ambrosia elatior); test: Test C preemergence, plant response rating; details: Preemergence
# Method in brief: as §2
# [15] = tested on: nutsedge, yellow (yellow nutsedge, Cyperus esculentus); test: Test C preemergence, plant response rating; details: Preemergence
# Method in brief: as §2
# [16] = tested on: morningglory (Ipomoea coccinea); test: Test C preemergence, plant response rating; details: Preemergence
# Method in brief: as §2
smiles,measurement,setting,value
CCCC(=O)c1c(Br)cccc1Oc1ncc(Cl)cn1 [Compound 75],"Ryegrass, Italian plant response rating",[1]; 125 g ai/ha,80
same,"Ryegrass, Italian plant response rating",[1]; 500 g ai/ha,100
same,"Foxtail, Giant plant response rating",[2]; 125 g ai/ha,100
same,"Foxtail, Giant plant response rating",[2]; 500 g ai/ha,100
same,Pigweed plant response rating,[3]; 125 g ai/ha,100
same,Pigweed plant response rating,[3]; 500 g ai/ha,100
same,Ragweed plant response rating,[4]; 125 g ai/ha,0
same,Ragweed plant response rating,[4]; 500 g ai/ha,10
same,"Plant response rating, Lambsquarters","[5]; 125 g ai/ha, scale of 0 to 100",70
same,"Plant response rating, Lambsquarters","[5]; 16 g ai/ha, scale 0 to 100",0
same,"Plant response rating, Lambsquarters","[5]; 31 g ai/ha, scale 0 to 100",10
same,"Plant response rating, Lambsquarters","[5]; 62 g ai/ha, scale 0 to 100",35
same,"Plant response rating, Waterhemp","[6]; 125 g ai/ha, scale of 0 to 100",98
same,"Plant response rating, Waterhemp","[6]; 16 g ai/ha, scale 0 to 100",75
same,"Plant response rating, Waterhemp","[6]; 31 g ai/ha, scale 0 to 100",95
same,"Plant response rating, Waterhemp","[6]; 62 g ai/ha, scale 0 to 100",98
same,"Plant response rating, Crabgrass, Large","[7]; 62 g ai/ha, scale of 0 to 100",98
same,"Plant response rating, Crabgrass, Large","[7]; 125 g ai/ha, scale of 0 to 100",98
same,"Plant response rating, Crabgrass, Large","[7]; 16 g ai/ha, scale 0 to 100",65
same,"Plant response rating, Crabgrass, Large","[7]; 31 g ai/ha, scale 0 to 100",85
same,"Plant response rating, Ryegrass, Italian","[8]; 125 g ai/ha, scale of 0 to 100",15
same,"Plant response rating, Ryegrass, Italian","[8]; 16 g ai/ha, scale 0 to 100",0
same,"Plant response rating, Ryegrass, Italian","[8]; 31 g ai/ha, scale 0 to 100",5
same,"Plant response rating, Ryegrass, Italian","[8]; 62 g ai/ha, scale 0 to 100",5
same,"Plant response rating, Velvetleaf","[9]; 125 g ai/ha, scale of 0 to 100",25
same,"Plant response rating, Velvetleaf","[9]; 16 g ai/ha, scale 0 to 100",0
same,"Plant response rating, Velvetleaf","[9]; 31 g ai/ha, scale 0 to 100",5
same,"Plant response rating, Velvetleaf","[9]; 62 g ai/ha, scale 0 to 100",35
same,"Plant response rating, Blackgrass","[10]; 62 g ai/ha, scale of 0 to 100",80
same,"Plant response rating, Blackgrass","[10]; 125 g ai/ha, scale of 0 to 100",75
same,"Plant response rating, Blackgrass","[10]; 16 g ai/ha, scale 0 to 100",0
same,"Plant response rating, Blackgrass","[10]; 31 g ai/ha, scale 0 to 100",5
same,"Plant response rating, Soybean","soybean (Glycine max); 125 g ai/ha, scale of 0 to 100",50
same,"Plant response rating, Soybean","soybean (Glycine max); 16 g ai/ha, scale 0 to 100",0
same,"Plant response rating, Soybean","soybean (Glycine max); 31 g ai/ha, scale 0 to 100",0
same,"Plant response rating, Soybean","soybean (Glycine max); 62 g ai/ha, scale 0 to 100",10
same,"Plant response rating, Corn","corn (Zea mays); 62 g ai/ha, scale of 0 to 100",0
same,"Plant response rating, Corn","corn (Zea mays); 125 g ai/ha, scale of 0 to 100",5
same,"Plant response rating, Corn","corn (Zea mays); 16 g ai/ha, scale 0 to 100",0
same,"Plant response rating, Corn","corn (Zea mays); 31 g ai/ha, scale 0 to 100",0
same,"Plant response rating, Oilseed Rape","[11]; 125 g ai/ha, scale of 0 to 100",40
same,"Plant response rating, Oilseed Rape","[11]; 16 g ai/ha, scale 0 to 100",0
same,"Plant response rating, Oilseed Rape","[11]; 31 g ai/ha, scale 0 to 100",0
same,"Plant response rating, Oilseed Rape","[11]; 62 g ai/ha, scale 0 to 100",10
same,"Plant response rating, Foxtail, Giant","[12]; 62 g ai/ha, scale of 0 to 100",65
same,"Plant response rating, Foxtail, Giant","[12]; 125 g ai/ha, scale of 0 to 100",98
same,"Plant response rating, Foxtail, Giant","[12]; 16 g ai/ha, scale 0 to 100",0
same,"Plant response rating, Foxtail, Giant","[12]; 31 g ai/ha, scale 0 to 100",25
same,"Plant response rating, Wheat","[13]; 125 g ai/ha, scale of 0 to 100",10
same,"Plant response rating, Wheat","[13]; 16 g ai/ha, scale 0 to 100",0
same,"Plant response rating, Wheat","[13]; 31 g ai/ha, scale 0 to 100",0
same,"Plant response rating, Wheat","[13]; 62 g ai/ha, scale 0 to 100",10
same,"Plant response rating, Ragweed","[14]; 125 g ai/ha, scale of 0 to 100",5
same,"Plant response rating, Ragweed","[14]; 16 g ai/ha, scale 0 to 100",0
same,"Plant response rating, Ragweed","[14]; 31 g ai/ha, scale 0 to 100",0
same,"Plant response rating, Ragweed","[14]; 62 g ai/ha, scale 0 to 100",0
same,"Plant response rating, Nutsedge, Yellow","[15]; 125 g ai/ha, scale of 0 to 100",20
same,"Plant response rating, Nutsedge, Yellow","[15]; 16 g ai/ha, scale 0 to 100",0
same,"Plant response rating, Nutsedge, Yellow","[15]; 31 g ai/ha, scale 0 to 100",0
same,"Plant response rating, Nutsedge, Yellow","[15]; 62 g ai/ha, scale 0 to 100",0
same,"Plant response rating, Morningglory","[16]; 125 g ai/ha, scale of 0 to 100",10
same,"Plant response rating, Morningglory","[16]; 16 g ai/ha, scale 0 to 100",0
same,"Plant response rating, Morningglory","[16]; 31 g ai/ha, scale 0 to 100",0
same,"Plant response rating, Morningglory","[16]; 62 g ai/ha, scale 0 to 100",20
